Source: ChEMBL document CHEMBL1151780, “Correlation of inhibitor effects on enzyme activity and thermal stability for the integral membrane protein fatty acid amide hydrolase” (Bioorg Med Chem Lett, 2008)
pKi: −log10 of the molar value.

Experiments:
[1] = target: T1, Fatty-acid amide hydrolase 1 (Homo sapiens, UniProt O00519); assay: Inhibition of FAAH at pH 9
T1 sequence (O00519 whole entry): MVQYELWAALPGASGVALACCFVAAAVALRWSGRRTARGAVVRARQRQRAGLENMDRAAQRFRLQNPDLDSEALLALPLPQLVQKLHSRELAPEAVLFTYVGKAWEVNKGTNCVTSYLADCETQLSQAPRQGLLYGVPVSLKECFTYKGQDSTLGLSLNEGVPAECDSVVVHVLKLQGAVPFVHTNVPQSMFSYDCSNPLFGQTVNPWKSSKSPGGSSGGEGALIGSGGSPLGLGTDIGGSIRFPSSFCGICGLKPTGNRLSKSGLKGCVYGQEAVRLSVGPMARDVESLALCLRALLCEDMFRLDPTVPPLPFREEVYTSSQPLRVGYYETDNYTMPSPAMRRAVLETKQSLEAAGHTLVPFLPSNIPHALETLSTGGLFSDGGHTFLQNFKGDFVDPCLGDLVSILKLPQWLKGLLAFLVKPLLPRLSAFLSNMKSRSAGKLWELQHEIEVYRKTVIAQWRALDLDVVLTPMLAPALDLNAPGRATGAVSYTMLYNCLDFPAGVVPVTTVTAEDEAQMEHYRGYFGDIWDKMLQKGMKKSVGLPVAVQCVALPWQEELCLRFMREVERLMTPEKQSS

[2] = target: T2, Fatty-acid amide hydrolase 1 (Homo sapiens) (UniProt O00519)
T2 sequence (whole entry): T1 sequence (O00519 whole entry)
Description: Binding affinity to FAAH assessed as thermal stability by measuring melting temperature

[3] = target: T1, Fatty-acid amide hydrolase 1; assay: Inhibition of FAAH at pH 7.5

Row | Structure (SMILES) | pKi [1] | Tm [2] | pKi [3]
1 | O=C(CCCCCCc1ccccc1)c1ncc(-c2cccc(-c3nnn[nH]3)n2)o1 | 7.40 | 54.7 °C | 
2 | O=C(CCCCCCc1ccccc1)c1ncc(-c2ccccc2)o1 |  | 47.2 °C | 
3 | O=C(O)c1cccc(-c2cnc(C(=O)CCCCCCc3ccccc3)o2)n1 |  |  | 7.98
4 | O=C(CCCCCCc1ccccc1)c1nnc(-c2ccccn2)o1 | 9.54 | 60.6 °C | 
5 | O=C(O)c1cccc(-c2cnc(C(=O)CCc3ccc(-c4ccccc4)cc3)o2)n1 | 7.66 |  | 
6 | O=C(O)c1cccc(-c2cnc(C(=O)CCc3ccc(-c4ccc(CN5CCSCC5)cc4)cc3)o2)n1 | 7.55 | 65.3 °C | 
7 | O=C(CCc1ccc(-c2ccccc2)cc1)c1ncc(-c2ccccn2)o1 |  | 59.9 °C | 

Second part, led by results:

Row | pKi [1] | Tm [2] | Structure (SMILES) | pKi [3]
8 |  | 53.4 °C | COC(=O)c1cccc(-c2cnc(C(=O)CCCCCCc3ccccc3)o2)n1 | 
9 | 7.85 | 64.3 °C | O=C(O)c1cccc(-c2nnc(C(=O)CCCCCCc3ccccc3)o2)n1 | 
10 |  | 55 °C | NC(=O)c1cccc(-c2cnc(C(=O)CCCCCCc3ccccc3)o2)n1 | 
11 |  | 58.5 °C | O=C(CCCCCCc1ccccc1)c1ncc(-c2ccccn2)o1 | 
